In the Deep4Chem optical property database:
One block for each compound: values may come before it.

Experiment: solvent given as SMILES

SMILES: c1ccc(N2c3ccc4ccccc4c3-c3c4ccccc4nc[n+]3[B-]2(c2ccccc2)c2ccccc2)cc1
- emission maximum (in C1CCC2CCCCC2C1): 642 nm
- emission maximum (in C1CCCCC1): 640 nm
- emission maximum (in C1CCOC1): 665 nm
- emission maximum (in CC#N): 677 nm
- emission maximum (in CC(C)=O): 675 nm
- emission maximum (in CCCCCC): 641 nm
- emission maximum (in CCOC(C)=O): 665 nm
- emission maximum (in CN(C)C=O): 680 nm
- emission maximum (in Cc1ccccc1): 654 nm
- emission maximum (in ClC(Cl)Cl): 676 nm

SMILES: Cc1ccc(-n2c(-c3ccccc3NS(=O)(=O)c3ccc(C)cc3)nc3c4ccccc4c4ccccc4c32)cc1
- emission maximum (in Cc1ccccc1): 365 nm

SMILES: N#Cc1c(-n2c3ccc(-c4ccccc4)cc3c3cc(-c4ccccc4)ccc32)c(-n2c3ccc(-c4ccccc4)cc3c3cc(-c4ccccc4)ccc32)c(C#N)c(-n2c3ccc(-c4ccccc4)cc3c3cc(-c4ccccc4)ccc32)c1-n1c2ccc(-c3ccccc3)cc2c2cc(-c3ccccc3)ccc21
- emission maximum (in Cc1ccccc1): 577 nm

SMILES: CCCCCCn1c(=O)c2c3oc4ccccc4oc3c3c(=O)n(CCCCCC)c(=O)c3c2c1=O
- emission maximum (in ClCCl): 487 nm

SMILES: CCCCc1ccc(-n2c3c(c4c2c2c(n4-c4ccc(CCCC)cc4)-c4ccc(C(F)(F)F)cc4NB2c2ccccc2)B(c2ccccc2)Nc2cc(C(F)(F)F)ccc2-3)cc1
- emission maximum (in Cc1ccccc1): 413 nm

SMILES: CC1=C(/C=C/c2ccccc2)C(C)=[N+]2C1=C(c1ccccc1)c1c(C)c(/C=C/c3ccccc3)c(C)n1[B-]2(F)F
- emission maximum (in ClC(Cl)Cl): 633 nm

SMILES: COc1ccccc1-c1nc2c3ccccc3c3ccccc3c2n1-c1ccc(C)cc1
- emission maximum (in Cc1ccccc1): 371 nm

SMILES: c1ccc(C2CCN3COc4c5ccccc5c5c6c7c(c2c3c46)C(c2ccccc2)CCN7CO5)cc1 (stereo not drawn)
- emission maximum (in C1CCCCC1): 535 nm
- emission maximum (in C1CCOC1): 583 nm
- emission maximum (in C1COCCO1): 577 nm
- emission maximum (in CC#N): 610 nm
- emission maximum (in CC(C)=O): 603 nm
- emission maximum (in CCOC(C)=O): 584 nm
- emission maximum (in CCOCC): 562 nm
- emission maximum (in CN(C)C=O): 612 nm
- emission maximum (in CO): 598 nm
- emission maximum (in CS(C)=O): 618 nm
- emission maximum (in Cc1ccccc1): 565 nm
- emission maximum (in ClC(Cl)Cl): 596 nm
- emission maximum (in ClCCl): 600 nm

SMILES: CC(C)(C)c1ccc2c(c1)c1cc(C(C)(C)C)ccc1n2-c1ccc(C#Cc2ccc(C#Cc3ccc(C=C(C#N)C#N)cc3)cc2)cc1
- emission maximum (in ClCCl): 474 nm

SMILES: COc1cc(N(c2ccccc2)c2ccc(C=C(C#N)C#N)c(OC)c2)ccc1C=C(C#N)C#N
- emission maximum (in C1COCCO1): 520 nm
- emission maximum (in CC#N): 571 nm
- emission maximum (in CC(C)=O): 562 nm
- emission maximum (in CCOC(C)=O): 532 nm
- emission maximum (in CN(C)C=O): 576 nm
- emission maximum (in CO): 558 nm
- emission maximum (in Cc1ccccc1): 500 nm
- emission maximum (in ClC(Cl)Cl): 524 nm
- emission maximum (in ClCCl): 534 nm

SMILES: C[Si]1(c2ccccc2)C(c2ccc(-n3c4ccccc4c4ccccc43)cc2)=C(c2ccccc2)C(c2ccccc2)=C1c1ccc(-n2c3ccccc3c3ccccc32)cc1
- emission maximum (in C1CCOC1): 520 nm

SMILES: CCCC1(CCC)c2cc(-c3ccc(-c4ccccc4)cc3)ccc2-c2ccc(-c3ccc4c(c3)C(CCC)(CCC)c3cc(-c5ccc(-c6ccccc6)cc5)ccc3-4)cc21
- emission maximum (in Cc1ccccc1): 402 nm

SMILES: N#Cc1ccccc1N1c2ccccc2C(c2ccccc2)(c2ccccc2)c2ccccc21
- emission maximum (in Cc1ccccc1): 441 nm

SMILES: CCN1c2ccc(/C=N/Nc3ccccn3)cc2Sc2cc(-c3cccc4ccccc34)ccc21
- emission maximum (in C1CCOC1): 487 nm
- emission maximum (in CS(C)=O): 498 nm
- emission maximum (in Cc1ccccc1): 482 nm
- emission maximum (in ClCCl): 491 nm

SMILES: Cc1n[nH]c2c1C(c1ccc([N+](=O)[O-])cc1)C(C#N)=C(N)O2 (stereo not drawn)
- emission maximum (in C1CCOC1): 393 nm
- emission maximum (in C1COCCO1): 390 nm
- emission maximum (in CC#N): 407 nm
- emission maximum (in CCCCO): 410 nm
- emission maximum (in CCCO): 411 nm
- emission maximum (in CCO): 414 nm
- emission maximum (in CCOC(C)=O): 396 nm
- emission maximum (in CN(C)C=O): 405 nm
- emission maximum (in CO): 417 nm
- emission maximum (in CS(C)=O): 404 nm
- emission maximum (in Cc1ccccc1): 387 nm
- emission maximum (in ClCCl): 402 nm

SMILES: COc1cc(C2=c3c(c4ccc(C(C)(C)C)cc4c4cc(C(C)(C)C)ccc34)=[N+]3C2=Nc2c(-c4cc(OC)c(OC)c(OC)c4)c4c5ccc(C(C)(C)C)cc5c5cc(C(C)(C)C)ccc5c4n2[B-]3(F)F)cc(OC)c1OC
- emission maximum (in Cc1ccccc1): 816 nm

SMILES: Cc1cc2nc3[nH]c(=O)n(C)c(=O)c3nc2cc1C
- emission maximum (in CC#N): 436 nm

SMILES: N#Cc1ccc(-c2ccc3c(c2)c2cc(-c4ccc(C#N)cc4)ccc2c2c3nc(-c3ccc(-c4ccc(N(c5ccccc5)c5ccccc5)cc4)cc3)n2-c2ccccc2)cc1
- emission maximum (in C1CCOC1): 468.68 nm
- emission maximum (in CC#N): 519.93 nm
- emission maximum (in CCCCCC): 421.18 nm
- emission maximum (in CCOCC): 449.2 nm

SMILES: COc1cc(OC)c2ccc(=O)oc2c1
- emission maximum (in CC(C)O): 417 nm
- emission maximum (in CCO): 425 nm
- emission maximum (in CCOCC): 390 nm
- emission maximum (in CO): 432 nm
- emission maximum (in O): 450 nm

SMILES: CCCCCCOc1cc(/C=C/c2cc(OCCCCCC)c(/C=C/c3cc(OCCCCCC)c(C=C4C(=O)c5ccccc5C4=O)cc3OCCCCCC)cc2OCCCCCC)c(OCCCCCC)cc1C=C1C(=O)c2ccccc2C1=O
- emission maximum (in ClCCl): 662 nm

SMILES: C(#Cc1ccncc1)C(C#Cc1ccncc1)=Cc1ccc(C=C(C#Cc2ccncc2)C#Cc2ccncc2)s1
- emission maximum (in ClC(Cl)Cl): 587 nm

SMILES: C1=C(c2ccc(-c3cccs3)s2)CCC1
- emission maximum (in C1CCOC1): 413 nm
- emission maximum (in CC#N): 412 nm
- emission maximum (in CCCCCC): 410 nm
- emission maximum (in CCO): 408 nm
- emission maximum (in OCCOCCO): 416 nm
- emission maximum (in c1ccncc1): 418 nm

SMILES: CC(=O)OC[C@@H]1O[C@H](n2cnc3c2N=CN2Cc4c[n+](C)c(C)nc4N=C32)[C@@H](O)[C@H]1O
- emission maximum (in CC#N): 415 nm
- emission maximum (in CCO): 416 nm
- emission maximum (in O): 409 nm

SMILES: COc1cc(C2=CC3=C(c4c(C)cc(C)cc4C)c4cc(-c5cc(OC)c(OC)c(OC)c5)c(-c5cc(OC)c(OC)c(OC)c5)n4[B-](F)(F)[N+]3=C2c2cc(OC)c(OC)c(OC)c2)cc(OC)c1OC
- emission maximum (in C1CCCCC1): 670 nm
- emission maximum (in C1CCOC1): 662 nm
- emission maximum (in CC#N): 628 nm
- emission maximum (in Cc1ccccc1): 677 nm
- emission maximum (in ClCCl): 651 nm

SMILES: O=C1c2ccc(N(c3ccccc3)c3ccccc3)cc2C(=O)c2ccc(N(c3ccccc3)c3ccccc3)cc21
- emission maximum (in Cc1ccccc1): 601 nm
- emission maximum (in c1ccc2c(c1)c1ccccc1n2-c1ccc(-c2ccc(-n3c4ccccc4c4ccccc43)cc2)cc1): 593 nm

SMILES: c1ccc(-n2c3ccccc3c3cc(C4(c5ccc6c(c5)c5ccccc5n6-c5ccccc5)c5cc(-c6ccc7ccc8cccc9ccc6c7c89)ccc5-c5ccc(-c6ccc7ccc8cccc9ccc6c7c89)cc54)ccc32)cc1
- emission maximum (in ClCCl): 423 nm

SMILES: C1=C(c2ccccc2)C2=Nc3c(-c4ccccc4)cc4n3[B-]3(Oc5ccccc5C1=[N+]23)Oc1ccccc1-4 (stereo not drawn)
- emission maximum (in Cc1ccccc1): 746 nm

SMILES: CCC1(CC)c2cc(N(c3ccccc3)c3ccccc3)ccc2-c2c1c1c(c3c2C(CC)(CC)c2cc(N(c4ccccc4)c4ccccc4)ccc2-3)C(CC)(CC)c2cc(N(c3ccccc3)c3ccccc3)ccc2-1
- emission maximum (in C1CCOC1): 390 nm
- emission maximum (in CC#N): 404 nm
- emission maximum (in CC(C)=O): 395 nm
- emission maximum (in CCCCCC): 382 nm
- emission maximum (in Cc1ccccc1): 386 nm

SMILES: CC(C)(C)c1ccc(-c2nc(-c3ccc(-n4c5ccccc5c5c6oc7ccccc7c6ccc54)cc3)nc(-c3ccc(C(C)(C)C)cc3)n2)cc1
- emission maximum (in C1CCOC1): 415.2 nm

SMILES: CC1(C)c2ccccc2N(c2ccc(-c3cccc(C#N)c3)cc2)c2ccccc21
- emission maximum (in Cc1ccccc1): 431 nm
- emission maximum (in N#Cc1ccc2c(c1)c1ccccc1n2-c1cccc(-n2c3ccccc3c3ccccc32)c1): 436 nm

Continued, values first:

- emission maximum (in C1CCCCC1): 444 nm
- emission maximum (in CC#N): 453 nm
- emission maximum (in CO): 487 nm
- emission maximum (in ClCCl): 477 nm
- emission maximum (in O): 470 nm
SMILES: N#Cc1ccc(-c2nc(-c3ccccc3)c3ccccn23)cc1

- emission maximum (in CC#N): 409 nm
- emission maximum (in CCCCCCCCCCCCCCCC): 381 nm
- emission maximum (in CO): 439 nm
- emission maximum (in ClC(Cl)Cl): 404 nm
- emission maximum (in c1ccccc1): 393 nm
SMILES: CC(C)(C)C1Nc2ccccc2C(=O)N1Cc1ccccc1 (stereo not drawn)

- emission maximum (in CO): 374 nm
SMILES: O=C(O)CCCc1cc2ccc3cccc4ccc(c1)c2c34

- emission maximum (in c1ccccc1): 440 nm
SMILES: O=c1oc2ccccc2nc1-c1ccc(Cl)cc1

- emission maximum (in CC#N): 407 nm
- emission maximum (in CCCCCCCCCCCCCCCC): 383 nm
- emission maximum (in CO): 442 nm
- emission maximum (in ClC(Cl)Cl): 398 nm
- emission maximum (in c1ccccc1): 393 nm
SMILES: O=C1c2ccccc2NC(c2ccccc2)N1Cc1ccccc1 (stereo not drawn)

- emission maximum (in ClCCl): 538 nm
SMILES: COc1ccc(N(c2ccc(OC)cc2)c2ccc(-c3ccc4nc5ccccc5c(=O)n4c3)cc2)cc1

- emission maximum (in CC#N): 472 nm
SMILES: COc1ccc(/C=C(\C#N)c2nc(-c3ccc(Cl)cc3)cs2)cc1

- emission maximum (in ClC(Cl)Cl): 648 nm
SMILES: Cc1c2c(c(C)c3ccccc13)-c1c-2ccc2nc3ccccc3nc12

- emission maximum (in CCO): 588 nm
- emission maximum (in ClCCl): 585 nm
SMILES: c1ccc(-c2c3ccc(=[N+]4CCCCC4)cc-3oc3cc(N4CCCCC4)ccc23)cc1

- emission maximum (in ClCCl): 530 nm
SMILES: CN(C)c1ccc(/C=C/c2cc(/C=C/c3ccc(N(C)C)cc3)ncn2)cc1

- emission maximum (in C1COCCO1): 557 nm
- emission maximum (in CC(C)O): 571 nm
- emission maximum (in CCCCO): 576 nm
- emission maximum (in CCCO): 576 nm
- emission maximum (in CCO): 576 nm
- emission maximum (in CO): 579 nm
- emission maximum (in CS(C)=O): 589 nm
- emission maximum (in ClC(Cl)Cl): 560 nm
- emission maximum (in ClCCl): 560 nm
- emission maximum (in c1ccccc1): 552 nm
SMILES: CCC[n+]1ccc(/C=C/c2ccc(N(C)C)cc2)cc1

- emission maximum (in ClCCl): 492 nm
SMILES: F[B-]1(F)n2c(Oc3ccccc3)c(Cl)c3c2C(=C2C(Br)=C(Cl)C(Oc4ccccc4)=[N+]21)Oc1ccccc1-3

- emission maximum (in ClCCl): 422 nm
SMILES: CCOC(=O)c1c(-c2cc3ccc(OC)cc3oc2=O)nn(-c2cccc(Cl)c2)c1C(=O)OCC

- emission maximum (in ClCCl): 555 nm
SMILES: C(=C\c1ccncn1)/c1ccc(N(c2ccccc2)c2ccc(/C=C/c3ccncn3)cc2)cc1

- emission maximum (in ClCCl): 434 nm
SMILES: CCOC(=O)/N=c1/oc2cc(OC)ccc2cc1C#N

- emission maximum (in CC1CCCO1): 487 nm
SMILES: COc1c(Br)c2cc(=O)oc3ccc4cccc1c4c32

- emission maximum (in C1CCCCC1): 400 nm
- emission maximum (in CO): 420 nm
SMILES: COc1ccc(/C=C(\C)c2nc3ccccc3s2)cc1

- emission maximum (in ClCCl): 413 nm
SMILES: Oc1ccccc1-c1nc2c(c3c1-c1ccccc1CC3)-c1ccccc1CC2
